# Experimental data published in US8268809B2, “Kinase inhibitors for preventing or treating pathogen infection and method of use thereof” (priority 2006, dated 2012).
# Experiments:
# [1] = tested on: vaccinia virus; settings: background statement, Reeves et al. 2005; cited from earlier work
# [2] = tested on: gamma-herpes variant that expresses GFP under a CMV promoter (GHV-Bac-GFP); assay: Herpes virus assay: GHV-Bac-GFP infection of 3T3 monolayers, cytopathic effect and GFP spread; type: cell-based, gamma-herpes virus; settings: for Herpes phenotype group / HERPES: 3T3 cells, GHV-Bac-GFP; for Herpes phenotype group: 10 μM, after 7 days; for HERPES: compound 10 μM, 7 days
# Description: All herpes viruses share the property of establishing life-long infection in their host. […] To determine whether tyrosine kinases participate in gamma-herpes virus infections, confluent monolayers of 3T3 cells were exposed and plated in optical 96 well dishes to the library of compounds of the present invention described herein for 1 hour. The cells were then infected with a gamma-herpes variant that expresses GFP under a CMV promoter (GHV-Bac-GFP), and replaced the compounds of the present invention at final concentration of 10 μM.
# [3] = tested on: vaccinia virus; type: cell-based
# [4] = tested on: vaccinia virus; type: cell-based; remark: listed apart in the source
SMILES,Herpes phenotype group [2],HERPES [2],VACCINIA Plaque Assay [3],also measured
"Cc1ccc(NC(=O)c2ccc(CN3CCN(C)CC3)cc2)cc1Nc1nccc(-c2cccnc2)n1 [CGP-2, reference compound]",(ii),ENTRY OR EGRESS INHIB- ITOR,,Plaque phenotype of known Abl-/Src-family kinase inhibitors [1]: somewhat reduced plaque size and loss of comets
CCOC(=O)c1ccc(-c2ccc3c(-c4ccc(C)c(F)c4)n[nH]c3n2)cc1 [APcK-51],(iii),DE- LAYED CPE,,
Nc1cccc(-c2ccc3nnc(-c4ccco4)n3n2)c1 [LG2-71],(ii),ENTRY OR EGRESS INHIB- ITOR,"SMALL PLAQUES, WITH COMETS","Effects in Herpes assay [2]: had effects; Class category of infected monolayers in plaque assay [3]: Class III; Effects in Vaccinia assays [3]: had effects; Plaque phenotype due to drug treatment (FIGS. 1, 2, 4) [3]: small plaques with comets; VACCINIA PLAQUE ASSAY 2 [3]: PINPOINTS"
Cc1ccc(NC(=O)c2ccc(CN3CCN(Cc4ccc(F)cc4)CC3)cc2)cc1Nc1nccc(-c2cccnc2)n1 [STI-F],,,PINPOINT PLAQUES,Class category of infected monolayers in plaque assay [3]: Class III; VACCINIA PLAQUE ASSAY 2 [3]: NO PLAQUES; Actin protein tails [4]: few actin tails
Brc1cnc2c(Nc3ccc(N4CCOCC4)cc3)nccn12 [LG2-77],(iii),DE- LAYED CPE,,
COc1ccccc1NS(=O)(=O)c1cccc(Nc2cc(-c3ccc(Cl)cc3)ncn2)c1 [Eph2_wbz 115],,DE- LAYED CPE,,
CC(=O)Nc1ccc(-c2ccc3c(-c4ccc(Br)cc4F)n[nH]c3n2)cc1 [APcK-21],(iii),DE- LAYED CPE,,
CC(=O)Nc1cccc(-c2ccc3c(-c4ccc(F)cc4)n[nH]c3n2)c1 [APcK-103],(iii),DE- LAYED CPE,NO PLAQUES,Effects in Herpes assay [2]: had effects; Class category of infected monolayers in plaque assay [3]: Class III; Effects in Vaccinia assays [3]: had effects; VACCINIA PLAQUE ASSAY 2 [3]: NO PLAQUES
CCOC(=O)c1ccc(-c2ccc3c(-c4ccc(Br)cc4F)n[nH]c3n2)cc1 [APcK-50],(iii),DE- LAYED CPE,,
Cc1ccc(NC(=O)c2ccc(CN3CCOCC3)cc2)cc1Nc1nccc(-c2cccnc2)n1 [CGP51148 WBZ-4],(iii),DE- LAYED CPE,,
COc1ccccc1Nc1cc(-c2ccc([N+](=O)[O-])cc2)ncn1 [Eph2_wbz 203],,,"SMALL PLAQUES, STILL SEE COMETS","Class category of infected monolayers in plaque assay [3]: Class III; Plaque phenotype due to drug treatment (FIGS. 1, 2, 4) [3]: small plaques with comets; VACCINIA PLAQUE ASSAY 2 [3]: SMALL PLAQUES; Actin protein tails [4]: wild-type actin protein tails"
CC(=O)c1cccc(-c2cnc3c(Nc4ccc(N5CCOCC5)cc4)nccn23)c1 [LG2-81],(iii),DE- LAYED CPE,,
Cc1ccc(NC(=O)c2ccc(CN3CCN(C)CC3)cc2)cc1Nc1nccc(-c2cncc(-c3ccncc3)c2)n1 [StiAF3-iAR],(ii),ENTRY OR EGRESS INHIB- ITOR,,
Brc1cnc2c(Nc3ccccc3)nccn12 [LG2-55],(iii),DE- LAYED CPE,PINPOINT PLAQUES,Effects in Herpes assay [2]: had effects; Effects in Vaccinia assays [3]: had effects
Cc1ccc(NC(=O)c2ccc(CN3CCN(C)CC3)cc2)cc1Nc1nccc(-c2cncc(-c3ccncc3)c2)n1 [WBZ-6],,DE- LAYED CPE,,
O=C(c1ccccc1)c1ccc(-c2ccc3c(-c4ccc(F)cc4)n[nH]c3n2)cc1 [APcK-36],(iii),DE- LAYED CPE,,
CC(=O)Nc1cccc(-c2ccc3c(-c4ccc(Br)c(F)c4)n[nH]c3n2)c1 [APcK-43],,DE- LAYED CPE,NO PLAQUES,Effects in Herpes assay [2]: had effects; Class category of infected monolayers in plaque assay [3]: Class III; Effects in Vaccinia assays [3]: had effects; VACCINIA PLAQUE ASSAY 2 [3]: NO PLAQUES
CCOC(=O)c1ccc(-c2ccc3c(-c4ccc(F)cc4)n[nH]c3n2)cc1 [APcK-53],(iii),DE- LAYED CPE,,
CC(=O)Nc1cccc(-c2ccc3c(-c4ccc(Cl)c(Cl)c4)n[nH]c3n2)c1 [APcK-42],(iii),DE- LAYED CPE,,
CC(=O)Nc1ccc(-c2ccc3c(-c4ccc(Cl)c(Cl)c4)n[nH]c3n2)cc1 [APcK-25],(iii),DE- LAYED CPE,,
